Experimental data reported in patent US20150342847A1, “NOVEL DERIVATIVES OF SINAPINIC ACID AND THE COSMETIC OR PHARMACEUTICAL USES THEREOF” (BASF Beauty Care Solutions France SAS, priority 2012, published 2015).
Values belong to the compound of their own block, whether it stands above or below them.

Columns and labels:
[1] = test system: keratinocytes from the A431 line; assay: Antiinflammatory activity: release of E2 prostaglandins by UVB-irradiated keratinocytes (ELISA); format: cell-based
Description: Study of the antiinflammatory activity of the hydroxytyrosol dihydrosinapate of the invention of formula (IIa), by measurement of the inhibition of release of E2 prostaglandins by keratinocytes under the effect of UVB.
The keratinocytes from the A431 line are cultured in an appropriate medium at 37° C. for 72 hours under 5% CO2. The culture medium is then withdrawn and replaced with the medium containing the products under test, and also the positive and negative controls. The cells are subsequently irradiated with UV B at 30 mJ/cm2. The cells are incubated for an extra 24 hours at 37° C. under 5% CO2. The cell supernatants are subsequently recovered, and the E2 prostaglandins (PGE2) released are quantified by an ELISA assay.
An amount of 100 μL of each sample, control or PGE2 standard is transferred to the wells of a 96-well plate, which are coated with antibodies directed against rat immunoglobulin G (IgG). Then an amount of 25 μL of PGE2-peroxidase conjugate is added to each well, followed by an amount of 25 μL of anti-PGE2 monoclonal antibody. The plate is incubated at 4° C. overnight. The wells are then rinsed and an amount of 100 μL of peroxidase substrate is added. After 15 minutes of incubation at ambient temperature, the optical density is read off at 450 nm. The amount of prostaglandin E2 released after irradiation is deduced from a commercial PGE2 standard range from 0 to 400 pg/mL of PGE2.
The negative control, represented by the cells which were not treated with samples and which underwent irradiation by UV B, gave rise to 100% release of PGE2. The positive experimental control is aspirin, which at 0.03% gave rise to 5%+/−2% release of PGE2.

human tyrosinase = target: T1, human tyrosinase (Homo sapiens, UniProt P14679); assay: Anti-human tyrosinase activity in normal human melanocytes (MBTH/L-Dopa, OD490); format: cell-based; conditions: normal human melanocytes, read-out: % inhibition of activity of tyrosinase +/− standard deviation
T1 construct: endogenous in cells; host or cells: normal human melanocytes obtained from abdominal plasty
T1 sequence (P14679 19-529): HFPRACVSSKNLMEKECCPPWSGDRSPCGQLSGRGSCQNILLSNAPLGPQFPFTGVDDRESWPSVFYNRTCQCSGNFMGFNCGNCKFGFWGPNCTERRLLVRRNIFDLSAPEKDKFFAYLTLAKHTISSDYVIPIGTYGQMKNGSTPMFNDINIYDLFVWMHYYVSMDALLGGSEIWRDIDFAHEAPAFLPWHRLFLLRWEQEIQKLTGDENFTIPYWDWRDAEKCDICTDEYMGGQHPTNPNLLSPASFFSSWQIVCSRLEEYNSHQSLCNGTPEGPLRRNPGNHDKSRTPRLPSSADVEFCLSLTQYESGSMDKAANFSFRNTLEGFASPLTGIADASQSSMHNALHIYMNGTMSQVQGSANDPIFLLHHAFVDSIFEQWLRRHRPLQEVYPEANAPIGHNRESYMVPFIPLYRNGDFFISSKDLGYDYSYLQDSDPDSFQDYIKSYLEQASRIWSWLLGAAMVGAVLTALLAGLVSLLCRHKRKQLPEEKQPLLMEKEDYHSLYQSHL
Description: Study of the inhibition of tyrosinase by the hydroxytyrosol dihydrosinapate of the invention of formula (IIa), in comparison with the prior-art ferulic acid derivative, by quantitative analysis of the human tyrosinase activity of melanocytes cultured as a monolayer following application of the compound under test. Normal human melanocytes (obtained from abdominal plasty) are seeded in a 24-well plate at 80000 cells per well. They are cultured until confluence, and the compounds under test are applied in the culture media for 24 hours. After 24 hours, the media are removed and the melanocytes are detached by mechanical action. Extraction is carried out by thermal shock and then the supernatants are recovered and incubated with MBTH (methyl benzothiazolinone-hydrazone) (Sigma) and L-Dopa (Sigma). The optical density (OD) at 490 nm (OD490) is measured after 30 minutes of incubation, and the inhibition of tyrosinase is calculated according to the following formula: % inhibition=100−[100×(OD490 sample/level of proteins in sample)/(OD490 negative control/level of proteins in negative control)] The OD490 is therefore related to the level of protein, which is the measurement in each culture well. […] The results are presented as % inhibition of activity of tyrosinase, in Table 2.

[2] = TBARS test, lipid peroxidation of UVB-irradiated liposomal suspension; conditions: for % inhibition of lipid peroxidation: UVB 2 hours
Description: Study of the radical scavenger activity of the hydroxytyrosol dihydrosinapate of the invention of formula (IIa) and of the prior-art ferulic acid derivative by the TBARS test.
Two identical 96-well plates are produced according to a defined plate plan. 50 μL of a sample mixture prepared by diluting a solution of a test compound or of a negative control (vehicle medium without test compound) or of a positive control (D-L-alpha-tocopherol) to 1/10 in a liposomal suspension are distributed per well, in quadruplicate. One of the two plates is irradiated with UVB for 2 hours. The other plate, serving as a control, is incubated in the absence of light and at ambient temperature for 2 hours.
At the end of irradiation, an amount of 100 μL of 20% trichloroacetic acid solution was added per well, followed by an amount of 34 μL of 1% thiobarbituric acid solution. The plates are then incubated at 105° C. for 25 minutes.
The contents of each well are centrifuged at 5700 rpm for 5 minutes, and then an amount of 100 μL of supernatant was deposited in new plates, according to the same plan, and the absorbance was read off at 530 nm.
The positive experimental control was D-L-alpha-tocopherol, at a concentration of 1%, for which a percentage inhibition of 80% was obtained.

[3] = test system: melanocytes of murine line B16; assay: Inhibition of melanin production in B16 melanocytes stimulated with an α-MSH derivative; format: cell-based; conditions: Mus musculus, B16 cells
Description: Determination of the percentage inhibition of melanin production by the hydroxytyrosol dihydrosinapate of the invention of formula (IIa) or the ferulic acid derivative of the prior art, by quantitative analysis of the total melanin synthesized by melanocytes of murine line B16 following application of the compound under test.
Melanocytes (B16 cells) are cultured for 24 hours in a 96-well plate in an appropriate medium. […] After 72 hours of incubation, the culture medium is withdrawn, and total melanin is quantified by measuring the absorbance at 405 nm against a standard range of synthetic melanin from 0.78 to 100 μg/mL.
The results are expressed as percentage inhibition of melanin production relative to the negative control, and are presented in Table 1.
The inhibitory activity on melanin production of the product tested is calculated as a percentage according to the following formula:
% inhibition=[(mean stimulated control−mean basal control)−(sample value−mean basal control)]/(mean stimulated control−mean basal control)×100
where: • Mean stimulated control: mean of the values obtained with a medium supplemented with an alpha-MSH derivative • Sample value: value obtained with the compound under test • Mean basal control: Mean of the values obtained with a medium not supplemented with an alpha-MSH derivative

[4] = DPPH radical scavenger test (acellular); conditions: 30 minutes
Source text: Study of the radical scavenger activity of the hydroxytyrosol dihydrosinapate of the invention of formula (IIa) and of the prior-art ferulic acid derivative in an acellular in vitro model, using DPPH.
1,1-Diphenyl-2-picrylhydrazyl, owing to its paramagnetic structure, is able to accept an electron or a hydrogen radical in order to become a stable diamagnetic molecule.
The addition of a compound which provides electrons gives rise to decoloring of the 1,1-diphenyl-2-picrylhydrazyl in a manner proportional to the number of electrons accepted by the radical, and this decoloration can be monitored by measuring the absorbance at 530 nm (OD530).
[…] At the end of the incubation, the radical scavenger activity of the compound under test is evaluated by measuring the absorbance of the solution at 530 nm.
The results are presented as % inhibition of the DPPH radical, in Table 3a).
The radical scavenger activity of the test product is calculated as a percentage, according to the following formula:
100−((OD530 in the presence of the compound under test/OD530 in the absence of compound)×100)

melanocytes = assay: Cytotoxicity, MTT cell viability on melanocytes; format: cell-based; conditions: 0.25%, positive cytotoxicity control
Description: (§1) Study of cell viability following application of the hydroxytyrosol dihydrosinapate of the invention of formula (IIa) to keratinocytes or melanocytes.
(§2) The cells (keratinocytes or melanocytes) were cultured in a 96-well plate at 37° C. under 5% CO2 in an appropriate medium until confluence. The medium was withdrawn and then an amount of 200 μL of a 0.5 mg/mL MTT solution was added. The plates were then incubated at 37° C. for 3 hours, after which the MTT solution was withdrawn from each well and replaced with DMSO. The plates were agitated for 15 minutes, and the optical density was measured at 550 nm.
(§3) The negative cytotoxicity control is PBS. The positive cytotoxicity control is 0.25% SDS. 0.1% DMSO was used as control.

keratinocytes = assay: Cytotoxicity, MTT cell viability on keratinocytes; format: cell-based; conditions: 0.25%, positive cytotoxicity control
Description: as §1, §2, §3

Structure (SMILES): COc1cc(CCC(=O)OCCc2ccc(O)c(O)c2)cc(OC)c1O
inhibition of prostaglandin E2 release (in words) ([1]; keratinocytes, 30 μM, after irradiation with UVB): greatly inhibited prostaglandin E2 release

inhibition at 1000 µM (human tyrosinase; 1 mM): 65%
Structure (SMILES): OC[C@H]1O[C@@H](Oc2ccc(O)cc2)[C@H](O)[C@@H](O)[C@@H]1O [Arbutin, arbutin, reference compound]

Structure (SMILES): Cc1c(C)c2c(c(C)c1O)CCC(C)(CCCC(C)CCCC(C)CCCC(C)C)O2 [D-L-alpha-tocopherol]
percentage inhibition (lipid peroxidation) ([2]; positive control at a concentration of 1%): 80%

Structure (SMILES): O=c1cc(CO)occ1O [Kojic acid, kojic acid]
inhibition at 25 µg/mL ([3]; positive control at 0.025 mg/mL, read-out: percentage inhibition of melanin production): 50%

inhibition at 1 µM (human tyrosinase; 1 μM, 24 hours): -9.22% | inhibition at 10 µM (human tyrosinase; 10 μM, 24 hours): 18.8% | inhibition at 100 µM (human tyrosinase; 100 μM, 24 hours): 67.8%
Structure (SMILES): COc1cc(/C=C/C(=O)NCCc2ccc(O)c(O)c2)ccc1O [Prior-art ferulic acid derivative, N-trans-feruloyldopamine, reference compound]
inhibition at 10 µM ([3]; 10 μM, 72 hours, read-out: % inhibition of melanin +/− standard deviation): 37% | inhibition at 30 µM ([3]; 30 μM, 72 hours, read-out: % inhibition of melanin +/− standard deviation): 76% | inhibition at 50 µM ([3]; 50 μM, 72 hours, read-out: % inhibition of melanin +/− standard deviation): 88% | % inhibition of the DPPH radical ([4]; 1 μM): 6.02 +/− 0.758% | % inhibition of the DPPH radical ([4]; 5 μM): 35.02 +/− 1.209% | % inhibition of the DPPH radical ([4]; 10 μM): 61.85 +/− 1.35% | % inhibition of the DPPH radical ([4]; 30 μM): 89.91 +/− 0.66% | % inhibition of the DPPH radical ([4]; 50 μM): 89.91 +/− 0.59% | % inhibition of the DPPH radical ([4]; 100 μM): 89.91 +/− 0.66% | % inhibition of the DPPH radical ([4]; 1000 μM): 90.99 +/− 0.46% | % inhibition of lipid peroxidation ([2]; 1 μM after dilution to 1/10th in the liposomal suspension): −16.95% | % inhibition of lipid peroxidation ([2]; 5 μM after dilution to 1/10th in the liposomal suspension): 6.69% | % inhibition of lipid peroxidation ([2]; 30 μM after dilution to 1/10th in the liposomal suspension): 11.77% | % inhibition of lipid peroxidation ([2]; 50 μM after dilution to 1/10th in the liposomal suspension): 31.74% | % inhibition of lipid peroxidation ([2]; 100 μM after dilution to 1/10th in the liposomal suspension): 64.04% | % inhibition of lipid peroxidation ([2]; 1000 μM after dilution to 1/10th in the liposomal suspension): 94.72%

Structure (SMILES): CCCCCCCCCCCCOS(=O)(=O)[O-].[Na+] [SDS, reference compound]
Percentage cell viability, Mean (melanocytes): 0.8% | Percentage cell viability, Mean (keratinocytes): 1.3%

Structure (SMILES): CC(=O)Oc1ccccc1C(=O)O [aspirin, reference compound]
% release of PGE2 after irradiation ([1]; A431 keratinocytes, 0.03%, UV B 30 mJ/cm2, positive control): 5%+/−2%
